From patent publication US8273773B2 (priority 2008, dated 2012)

Experiments:
[1] = tested on: HCV replicon cells (2209-23), genotype 1b replicon; test: HCV Replicon Assay (Renilla luciferase reporter); type: cell-based, HCV genotype 1b replicon in human hepatoma Huh7 cells; conditions: 2209-23 cells, three days incubation
[2] = tested on: HCV; conditions: monotherapy; cited from earlier work
[3] = target: T1, HCV polymerase (NS5B570n-Con1) (Hepatitis C virus genotype 1b, UniProt Q9WMX2); test: biochemical; set-up: species or system HCV Con1 strain; conditions: values without asterisk; 20 nM NS5B570n-Con1 enzyme, 20 nM cIRES RNA template; read-out: IC50 HCV NS5B RNA Polymerase Assay;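 also: recombinant His-tagged enzyme from E. coli, radiolabeled nucleotide incorporation into acid-insoluble RNA read by scintillation after filtration, no-enzyme background subtracted, activity relative to positive control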
T1 construct: contains a 21 amino acid deletion at the C-terminus relative to the full-length HCV polymerase; 6-histidine (N); made in house; host or cells: E. coli strain BL21(DE) pLysS (pET17b)

Structure (SMILES)	IC50 ([1]; Hepatitis C virus, 72 h)	melting point	patients in whom serum amino transferase levels are reduced to normal [2]	IC50 [1]	IC50 [3]
CC1(C)COc2c(-c3cc(F)c[nH]c3=O)cc(/C=C/c3ccc(NS(C)(=O)=O)cc3)cc21 [II-3]	54.6 nM	264 to 266 °C	–	–	–
NC(=O)c1ncn([C@@H]2O[C@H](CO)[C@@H](O)[C@H]2O)n1 [ribavirin, 1-((2R,3R,4S,5R)-3,4-Dihydroxy-5-hydroxymethyl-tetrahydro-furan-2-yl)-1H-[1,2,4]triazole-3-carboxylic acid amide]	–	–	40%	–	–
Cc1cc(C(=O)O)ccc1[N+](=O)[O-] [I-129]	–	–	–	101 nM	7 nM
COc1c(/C=C/c2ccc(NS(C)(=O)=O)cc2C(=O)O)cc(-c2ccc[nH]c2=O)cc1C(C)(C)C [I-203, 2-{(E)-2-[3-tert-Butyl-2-methoxy-5-(2-oxo-1,2-dihydro-pyridin-3-yl)-phenyl]-vinyl}-5-methanesulfonylamino-benzoic acid]	10 nM	260 to 262 °C	–	–	–
